Data on 4 compounds can be found in ChEMBL document CHEMBL2073792, “Hepatic uptake of the magnetic resonance imaging contrast agent gadoxetate by the organic anion transporting polypeptide Oatp1” (J Pharmacol Exp Ther, 1999).

What is called Km is the concentration of substrate that gives half-maximal velocity.

What all share (assay type): functional, cell-based
Settings in all cases: oocyte

The target of data set [1] is T1, Solute carrier organic anion transporter family member 1A1 (Rattus norvegicus, UniProt P46720).
T1 sequence (P46720 whole entry): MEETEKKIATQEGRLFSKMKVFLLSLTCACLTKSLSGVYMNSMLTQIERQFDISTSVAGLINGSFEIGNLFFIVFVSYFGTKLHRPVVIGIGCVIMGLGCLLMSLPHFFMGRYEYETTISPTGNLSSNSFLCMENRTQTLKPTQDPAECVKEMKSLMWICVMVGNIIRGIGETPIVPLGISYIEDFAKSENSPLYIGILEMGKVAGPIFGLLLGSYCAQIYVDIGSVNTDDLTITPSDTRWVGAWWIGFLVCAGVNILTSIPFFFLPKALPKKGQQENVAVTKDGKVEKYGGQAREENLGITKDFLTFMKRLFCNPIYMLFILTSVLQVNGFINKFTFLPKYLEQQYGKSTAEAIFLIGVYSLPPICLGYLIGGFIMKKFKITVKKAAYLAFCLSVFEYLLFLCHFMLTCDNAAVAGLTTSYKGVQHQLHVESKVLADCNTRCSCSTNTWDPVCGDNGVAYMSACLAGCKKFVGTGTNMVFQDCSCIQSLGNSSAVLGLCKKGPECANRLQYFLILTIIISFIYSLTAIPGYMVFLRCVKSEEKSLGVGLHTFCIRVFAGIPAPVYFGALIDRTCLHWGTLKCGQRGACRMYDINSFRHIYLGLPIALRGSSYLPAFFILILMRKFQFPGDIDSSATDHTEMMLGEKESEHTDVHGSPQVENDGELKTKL
Briefly: TP_TRANSPORTER: inhibition of Gadoxetate uptake (Gadoxetate: 100 uM, BSP: 10 uM) in Xenopus laevis oocytes.

Data set [2] deals with T1, Solute carrier organic anion transporter family member 1A1. The experiment in a line: TP_TRANSPORTER: inhibition of Gadoxetate uptake (Gadoxetate: 100 uM, Rifampicin: 100 uM) in Xenopus laevis oocytes.
Data set [3] shares this target. Briefly: TP_TRANSPORTER: inhibition of Gadoxetate uptake (Gadoxetate: 100 uM, Rifamycin SV: 100 uM) in Xenopus laevis oocytes.
Data set [4] has the same target. The experiment in a line: TP_TRANSPORTER: uptake in Xenopus laevis oocytes.

As for `O=C1OC(c2ccc(O)c(S(=O)(=O)[O-])c2)(c2ccc(O)c(S(=O)(=O)[O-])c2)c2c(Br)c(Br)c(Br)c(Br)c21.[Na+].[Na+]` [SULFOBROMOPHTHALEIN SODIUM], the Activity entry in data set [1] was “inhibitor [(at a rough estimate) 55 % of control]”.

Consider `CO[C@H]1/C=C/O[C@@]2(C)Oc3c(C)c(O)c4c(O)c(c(/C=N/N5CCN(C)CC5)c(O)c4c3C2=O)NC(=O)/C(C)=C\C=C\[C@H](C)[C@H](O)[C@@H](C)[C@@H](O)[C@@H](C)[C@H](OC(C)=O)[C@@H]1C` [RIFAMPIN], for which the Activity result in data set [2] is “inhibitor [(at a rough estimate) 50 % of control]”.

With `CO[C@H]1/C=C/O[C@@]2(C)Oc3c(C)c(O)c4c(O)c(cc(O)c4c3C2=O)NC(=O)/C(C)=C\C=C\[C@H](C)[C@H](O)[C@@H](C)[C@@H](O)[C@@H](C)[C@H](OC(C)=O)[C@@H]1C` [RIFAMYCIN], the Activity entry in data set [3] is “inhibitor [(at a rough estimate) <5 % of control]”.

In the case of GADOXETATE, the Km in data set [4] worked out at 3.3 mM.
